Measurements: patent US20250101436A1, “APTAMERS AND SMALL MOLECULE LIGANDS” (MeiraGTx UK II Limited, priority 2021, published 2025)

Tests used:
[1] = tested on: 12C6-1 riboswitch; test: Firefly luciferase assay, Luci-12C6-1 riboswitch construct in transfected HEK 293 cells; assay type: cell-based, human; settings: Luci-12C6-1, HEK 293, 50 uM Comp. 004
Source text: Riboswitch construct: Aptamers were synthesized by Integrated DNA Technologies, Inc. The synthesized aptamer sequence, here referred to as aptamer sequence 12C6-1, contains a putative TPP aptamer sequence (AP008955.1/944373-944459; CP030117.1/954080-954166; CP023474.1/977011-977097) with C at 5′ end and a complementary G at 3′ end flanking the putative TPP aptamer sequence: […] […] (SEQ ID NO: 1). Golden Gate cloning strategy (New England Biolabs, NEB) was used to clone the synthesized aptamer sequences into an intron-exon-intron cassette to replace the guanine aptamer in the G17 riboswitch cassette (see SEQ ID NO: 15 recited in WO 2016/126747, which is incorporated herein in its entirety) to generate riboswitch construct Luci-12C6-1.

[2] = tested on: Alishewanella tabrizica thiC aptamer in TPPz riboswitch; test: Firefly luciferase assay, TPPz riboswitch construct in HEK 293 cells; assay type: cell-based, human; settings: HEK 293, 50 μM Comp. 004
Description: (§1) First, the E. coli thiM TPP aptamer, the aptamer that was used in Weeks' work in generating the Comp. 004, was tested in TPPm riboswitch construct (SEQ ID No. 87 as described in 62/994,135) for its response to Comp. 004 in inducing gene expression. To evaluate whether this novel TPP aptamer binder could bind a different TPP aptamer, TPP aptamer from Alishewanella tabrizica thiC gene (Microbiol Res. 2017 January; 195:71-80) was tested in TPPz riboswitch construct (SEQ ID No. 86 as described in 62/994,135).

[3] = tested on: E. coli thiM TPP aptamer in TPPm riboswitch; test: Firefly luciferase assay, TPPm riboswitch construct in HEK 293 cells; assay type: cell-based, human; settings: HEK 293, 50 μM Comp. 004
Description: as §1

[4] = tested on: N4-1C11 riboswitch; test: Firefly luciferase assay, N4-1C11 riboswitch in HEK 293 cells; assay type: cell-based, human; settings: N4-1C11, 0.1 μM Comp. 004
Description: (§4) Transfection: 3.5×10^4 human embryonic kidney (HEK) 293 cells were plated in a 96-well flat bottom plate the day before transfection. Plasmid DNA (500 ng) was added to a tube or a 96-well U-bottom plate. Separately, TransIT-293 reagent (Mirus; 1.4 L) was added to 50 μL Optimum I media (Life Technologies) and allowed to sit for 5 minutes at room temperature (RT). Then, 50 μL of this diluted transfection reagent was added to the DNA, mixed, and incubated at RT for 20 min. Finally, 7 μL of this solution was added to a well of cells in the 96-well plate. Four hours after transfection, medium containing transfection solution was replaced by medium with either TPP or fursultiamine as aptamer ligands.
(§5) Firefly luciferase assay of cultured cells: Twenty-four hours after media change, plates were removed from the incubator, and equilibrated to RT for several minutes on a lab bench, then aspirated. […] Following a 5 min incubation at RT, luminescence was measured using a Tecan machine with 500 ms read time. The luciferase activity was expressed as mean arbitrary light units (ALU)±S.D., and fold induction was calculated as the quotient of the luciferase activity obtained from cells with TPP or analog compound treatment divided by the luciferase activity obtained from cells without TPP or analog compound treatment.

[5] = tested on: N5-12E5 riboswitch; test: Firefly luciferase assay, N5-12E5 riboswitch in HEK 293 cells; assay type: cell-based, human; settings: N5-12E5, 0.1 μM Comp. 004
Description: as §4, §5

[6] = tested on: mEpo-12G6 (N5-12G6 riboswitch in mEpo gene); test: ELISA for mouse erythropoietin, construct mEpo-12G6 in AML12 cells; assay type: cell-based; settings: mEpo-12G6, 1.85 μM Comp. 004
Source text: (§2) Riboswitch constructs: The alternative splicing riboswitch cassette containing aptamers N5-12G6 or N4-1C11 was inserted between nucleotide position 307 and 308 in the mouse erythropoietin cDNA sequence, generating constructs mEpo-12G6 and mEpo-1C11. Expression of the erythropoietin gene was driven by CASI promoter. The intron-exon-intron cassette without aptamer sequence was inserted at the same position in the cDNA of mEpo gene to create construct mEpo-Con1, serving as a control for constitutive target gene expression. N5-12G6 riboswitch cassette was inserted between nucleotide position 424 and 425 in the cDNA of human growth hormone (hGH) gene driven under CMV promoter.
(§3) Enzyme-linked immunosorbent assay (ELISA) for mouse erythropoietin (mEpo): AML-12 cells or C2C12 cells were transfected as described in Example 1 with TransIT-X2 transfection reagent (Mirus Bio). Four hours after transfection, the transfected cells were treated with or without Comp. 004 at the indicated doses. The supernatants from the transfected cells were collected 24 hours after compound treatment and were subjected to ELISA for the detection of mEpo in the supernatant following the manufacturer's instruction (R&D).

[7] = tested on: mEpo-1C11 (N4-1C11 riboswitch in mEpo gene); test: ELISA for mouse erythropoietin, construct mEpo-1C11 in AML12 cells; assay type: cell-based; settings: mEpo-1C11, 1.85 μM Comp. 004
Source text: as §2, §3

[8] = tested on: riboswitch regulatable mEpo constructs; test: ELISA for mouse erythropoietin, riboswitch regulatable mEpo constructs in C2C12 cells; assay type: cell-based
Source text: as §2, §3

[9] = tested on: hGH-12G6 (N5-12G6 riboswitch in hGH gene); test: ELISA for human growth hormone, hGH-12G6 construct in HEK 293 cells; assay type: cell-based; settings: HEK 293, hGH-12G6, 3.1 μM Comp. 004
Source text: as §2
as §3, with “ELISA” for “Enzyme-linked immunosorbent assay (ELISA)”, “human growth hormone (hGH): HEK 293” for “mouse erythropoietin (mEpo): AML-12 cells or C2C12”, “TransIT-293” for “TransIT-X2”, “Comp. 004” for “compound”, “hGH” for “mEpo”, “(R&D Systems).” for “(R&D).”

[10] = tested on: AAV8.mEpo.12G6 mEpo expression; test: Serum mouse Epo ELISA in mice injected in the muscle with AAV8.mEpo.12G6, oral Comp. 004; assay type: in vivo; settings: 1×10^11 GC AAV8 in the muscle, 30 mg/kg oral
Description: For regulated mouse erythropoietin (mEpo) study, each female Balb/c mouse was injected in the quadricep muscle with 1.0×10^11, 5×10^10, 1×10^10, or 5×10^9 GC of AAV8 vectors containing riboswitch N5-12G6 regulated mEpo gene (AAV8.mEpo.12G6). 5 weeks post AAV injection, mice were treated with Comp. 004 formulated in 0.5% methylcellulose (MC): 0.25% Tween® 80 in deionized (DI) water via oral gavage. 16 hours post oral dosing, mice were subjected to submandibular blood collection. 10 fold diluted serum was used to measure mouse serum Epo using ELISA (Invitrogen).

[11] = tested on: hematocrit of anemic mice; test: Hematocrit in mouse model of chronic kidney disease (CKD)-associated anemia with AAV8.mEpo.12G6; assay type: in vivo; settings: for hematocrit: 300 mg/kg for 15 days and 10 doses
Description: Chronic kidney disease-associated anima: male C57Bl/6 mice were injected intramuscularly with 2.5×10^10 vg or 1.0×10^10 vg of AAV8.mEpo.12G6 per mouse. One week post AAV injection, mice were treated daily with 50 mg/kg adenine (Sigma) via oral gavage for total 28 treatment in 5 weeks. Hematocrit was measured after Adenine treatment and before small molecule inducer treatment and monitored every 7 to 10 days post daily small molecule inducer oral dosing.

[12] = tested on: hPTH-12G6 (N5-12G6 riboswitch in hPTH gene); test: ELISA for human PTH, hPTH-12G6 construct in HEK 293 cells; assay type: cell-based; settings: HEK 293, hPTH-12G6
Source text: Riboswitch constructs: Alternative splicing riboswitch cassette containing aptamers N5-12G6 was inserted between nucleotide position 181 and 182 in human parathyroid hormone (hPTH) cDNA sequence, generating constructs hPTH-12G6. Expression of the erythropoietin gene was driven by CASI promoter.
as §3, with “human PTH: HEK 293” for “mouse erythropoietin (mEpo): AML-12 cells or C2C12”, “TransIT-293” for “TransIT-X2”, “Compound” for “Comp.”, “48” for “24”, “human PTH” for “mEpo”, “(Abcam).” for “(R&D).”

[13] = tested on: AAV9.hPTH-12G6 hPTH expression; test: hPTH production and serum calcium in mice injected intramuscularly with AAV9.hPTH-12G6, oral Comp. 004; assay type: in vivo; settings: oral 30, 100 or 300 mg/kg for 3 days
Description: AAV2.9 viral particle production: The AAV9 particles used for the transduction of mice comprised a viral genome derived from AAV2 (ITR) and a capsid derived from AAV9. The hPTH-12G6 was cloned into AAV plasmid backbone with CASI promoter, and the AAV plasmid was packaged into AAV9 capsid, generating vector AAV9.hPTH-12G6 (Signagen)
Animal study: C57BL/6 mice were injected intramuscularly with AAV9.hPTH-12G6 at 2.5×10^11 viral genome (VG) per mouse of the AAV9 viral particle into both quadriceps. Compound 004 was formulated in 0.5% methylcellulose (MC): 0.25% Tween® 80 in deionized (DI) water for oral administration. 30 days after AAV vector delivery, mice were treated orally via oral gavage with 0 mg/kg, 30 mg/kg, 100 mg/kg or 300 mg/kg Comp. 004 for 3 days.

[14] = tested on: N5-12G6 riboswitch; test: Firefly luciferase assay, N5-12G6 riboswitch in HEK293 cells; settings: N5-12G6, 0.1 μM Comp. 004

For `c1cc(N2CCNCC2)c(NCc2ccc3nccnc3c2)cn1` [Comp. 004], the “fold increase in luciferase expression” value [1] was 360 fold, the “fold increase in luciferase expression” value [2] was 26 fold and the “increase in luciferase expression” value [3] was 4.1. For the same compound, the “fold increase in luciferase expression” value [4] was 16 fold, the “fold increase in luciferase expression” value [5] was 8 fold and the “fold induction of mEpo expression” value [6] was “about 148 fold”. For the same compound, the “fold induction of mEpo expression” value [7] was ~71 fold, the mEpo expression [8] was “induced upon treatment of Comp. 004 in a dose dependent manner” and the “fold of the hGH expression from cells without compound treatment” value [9] was “approximately 243 fold”. The hGH expressed [9] was 202 ng/mL, the “serum vector-expressed mEpo” value [10] was “elevated” and the hematocrit ([11]; AAV 1×10^10 vg per mouse) was “restored to normal level”. The hematocrit ([11]; AAV 2.5×10^10 vg per mouse) was “exceeded the normal hematocrit level”, the “hematocrit of anemic mice” value ([11]; after 20 oral doses, biggest increase in the 100 mg/kg dose group) was “increased” and the hPTH expression [12] was “dose dependent manner”. For the same compound, the “production of hPTH in mice” value [13] was “induced dose-dependent production of hPTH”, the serum calcium concentration [13] was “increase in the serum calcium concentration” and the “fold increase in luciferase expression” value [14] was 36 fold.
